Measured values as given in ChEMBL document CHEMBL2203118, “Ethyl 2,4,6-trihydroxybenzoate is an agonistic ligand for liver X receptor that induces cholesterol efflux from macrophages without affecting lipid accumulation in HepG2 cells” (Bioorg Med Chem Lett, 2012).
Calls of active or inactive are those of the source. The rule behind the calls is not given here.

Tests used:
[1] = biological target: T1, Oxysterols receptor LXR-beta (Homo sapiens) (UniProt P55055); assay: (§1) Agonist activity at human LXR-beta assessed as increase in recruitment of Trap 220/D22 coactivator peptide by TR-FRET assay; assay type: functional
T1 sequence (whole entry): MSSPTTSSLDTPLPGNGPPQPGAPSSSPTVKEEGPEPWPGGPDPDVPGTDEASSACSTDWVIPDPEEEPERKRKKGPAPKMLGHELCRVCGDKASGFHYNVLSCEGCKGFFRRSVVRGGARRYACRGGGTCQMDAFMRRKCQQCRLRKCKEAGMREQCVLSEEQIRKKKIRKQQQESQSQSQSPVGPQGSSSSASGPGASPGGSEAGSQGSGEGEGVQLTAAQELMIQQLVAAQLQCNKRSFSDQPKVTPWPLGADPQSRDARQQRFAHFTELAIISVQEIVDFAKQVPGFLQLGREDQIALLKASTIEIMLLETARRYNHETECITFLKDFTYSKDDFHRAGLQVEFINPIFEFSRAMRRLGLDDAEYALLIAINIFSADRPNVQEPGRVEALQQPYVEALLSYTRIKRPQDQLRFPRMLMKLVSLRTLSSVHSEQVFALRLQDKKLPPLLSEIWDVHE

[2] = biological target: T2, Oxysterols receptor LXR-beta (Homo sapiens, UniProt P55055); assay: as §1; assay type: functional
T2 sequence (P55055 whole entry): T1 sequence (whole entry)

[3] = biological target: T3, Liver X receptor (Homo sapiens) (UniProt Q13133+P55055); assay: Agonist activity at LXR in human THP1 cells assessed as induction of ABCA1 mRNA expression at 100 uM after 48 hrs by qPCR analysis relative to control; assay type: functional, cell-based; conditions: THP-1
[4] = biological target: T4, Oxysterols receptor LXR-alpha (Homo sapiens) (UniProt Q13133); assay: Transactivation of human LXR-alpha transfected in HEK293 cells at 100 uM after 24 hrs by luciferase reporter gene assay; assay type: cell-based
T4 sequence (whole entry): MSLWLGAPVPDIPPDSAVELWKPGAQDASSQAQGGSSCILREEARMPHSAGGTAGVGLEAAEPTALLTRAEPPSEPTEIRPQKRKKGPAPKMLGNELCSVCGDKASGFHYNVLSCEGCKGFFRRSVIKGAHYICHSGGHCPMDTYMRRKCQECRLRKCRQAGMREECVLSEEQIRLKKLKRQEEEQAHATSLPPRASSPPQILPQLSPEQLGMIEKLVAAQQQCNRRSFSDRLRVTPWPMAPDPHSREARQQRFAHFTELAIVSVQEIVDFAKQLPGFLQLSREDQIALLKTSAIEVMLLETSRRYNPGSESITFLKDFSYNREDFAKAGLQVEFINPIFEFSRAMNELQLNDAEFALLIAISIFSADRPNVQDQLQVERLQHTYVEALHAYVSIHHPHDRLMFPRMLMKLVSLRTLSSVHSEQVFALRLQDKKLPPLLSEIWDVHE

[5] = Agonist activity at LXR in mouse RAW 264.7 assessed as increase in ABCG1mRNA level at 100 uM after 48 hrs by qPCR analysis relative to control; assay type: functional
HepG2 [6] = assay: Reduction in SCD-1 gene expression in human HepG2 cells at 50 uM by qPCR analysis relative to control; assay type: functional; set-up: scale not given: the % may be the effect or the level left
[7] = biological target: T1, Oxysterols receptor LXR-beta (Homo sapiens); assay: Transactivation of human LXR-beta transfected in HEK293 cells at 100 uM after 24 hrs by luciferase reporter gene assay; assay type: cell-based
HepG2 [8] = assay: Induction of lipid accumulation in human HepG2 cells assessed as increase in cellular triglyceride level by Dil staining relative to control; assay type: cell-based
RAW264.7 = assay: Cytotoxicity against mouse RAW264.7 after 48 hrs by MTT assay; assay type: cell-based; conditions: raw264.7, 48 h
[9] = biological target: T3, Liver X receptor (Homo sapiens); assay: Agonist activity at LXR in human Caco2 cells assessed as increase in ABCG8 mRNA level at 100 uM after 48 hrs by qPCR analysis relative to control; assay type: functional, cell-based; conditions: Caco-2
HepG2 [10] = assay: Upregulation of ACOX gene expression in human HepG2 at 100 uM by qPCR analysis relative to control; assay type: functional, cell-based
[11] = biological target: T1, Oxysterols receptor LXR-beta (Homo sapiens); assay: Binding affinity to human LXR-beta LBD by SPR-Biacore assay
[12] = biological target: T3, Liver X receptor (Homo sapiens); assay: Agonist activity at LXR in human THP1 cells assessed as induction of ABCG1 gene expression after 48 hrs by qPCR analysis; assay type: functional, cell-based; conditions: THP-1
[13] = biological target: T3, Liver X receptor (Homo sapiens); assay: Agonist activity at LXR in human THP1 cells assessed as induction of ABCA1 gene expression at 100 uM after 48 hrs by immunoblot analysis relative to control; assay type: functional, cell-based; conditions: THP-1
[14] = biological target: T3, Liver X receptor (Homo sapiens); assay: Agonist activity at LXR in human Caco2 cells assessed as increase in ABCA1 mRNA level at 100 uM after 48 hrs by qPCR analysis relative to control; assay type: functional, cell-based; conditions: Caco-2
[15] = biological target: T3, Liver X receptor (Homo sapiens); assay: Agonist activity at LXR in human THP1 cells assessed as increase in ApoE mRNA level at 100 uM after 48 hrs by qPCR analysis relative to control; assay type: functional, cell-based; conditions: THP-1
[16] = Agonist activity at LXR in mouse RAW 264.7 assessed as induction of ABCA1 mRNA expression at 100 uM after 48 hrs by qPCR analysis relative to control; assay type: functional
THP-1 = assay: Cytotoxicity against human THP1 cells after 48 hrs by MTT assay; assay type: cell-based; conditions: thp-1, 48 h
[17] = biological target: T5, Oxysterols receptor LXR-alpha (Homo sapiens, UniProt Q13133); assay: Transactivation of human LXR-alpha transfected in HEK293 cells after 24 hrs by luciferase reporter gene assay; assay type: cell-based
T5 sequence (Q13133 whole entry): T4 sequence (whole entry)

HepG2 [18] = assay: Induction of lipid accumulation in human HepG2 cells assessed as cellular triglyceride concentration at 50 to 100 uM; assay type: cell-based; conditions: hepg2, 100 µM
HepG2 [19] = assay: Upregulation of CPT-1 gene expression in human HepG2 at 100 uM by qPCR analysis relative to control; assay type: functional, cell-based

Activity [1]: Dose-dependent effect
EC50 [2]: 3.04 µM
fold change (FC) [3]: 7.4
Activity [4]: 64%
Activity [7]: 55%
fold change (FC) [9]: 1.5
Activity [11]: Active
Activity [12]: Dose-dependent effect
Activity [13]: Active
fold change (FC) [14]: 2.1
fold change (FC) [15]: 1.9
EC50 [17]: 80.8 µM
Compound: CCOC(=O)c1c(O)cc(O)cc1O
fold change (FC) [5]: 2.9
Activity (HepG2 [6]): 47.6%
Activity (HepG2 [8]): Non-toxic
Activity (RAW264.7): Non-toxic
Activity (HepG2 [10]): Active
fold change (FC) [16]: 2.1
Activity (THP-1): Non-toxic
Activity (HepG2 [18]): Non-toxic
Activity (HepG2 [19]): Active
